Assay results from paper PMC7927014, “Novel Small Molecule Hsp90/Cdc37 Interface Inhibitors Indirectly Target K-Ras-Signaling” (Cancers, 2021).

What was measured:
K-RasG12V nanoclustering = test: K-RasG12V nanoclustering-FRET (FLIM-FRET) in HEK cells; format: cell-based; conditions: 24 h, conglobatin A 2 μM, salinomycin 1.3 μM, 17-AAG 2 μM, CAY10585 10 μM, hit compounds indicated concentrations
Description: In total, 80,000 HEK cells were seeded in 12-well plates containing sterilized 16-mm coverslips and 1 mL medium. The next day, the cells were transfected using jetPRIME or FuGENE HD transfection reagent. For the donor fluorophore-only samples, the cells were transfected with 500 ng mGFP-tagged RasG12V plasmid. For the nanoclustering-FRET pair samples, the cells were transfected with both the donor and acceptor constructs, i.e., pmGFP- and pmCherry- RasG12V at a plasmid ratio of 1:3, respectively, and a total of 800 ng plasmids. The next day, the cells were treated with either 0.1% DMSO vehicle control or the indicated concentrations of compounds diluted in DMEM or RPMI medium for 24 h. For the gene silencing studies, the cells were transfected with the indicated amounts of siRNAs, together with the FRET pair constructs. The plasmids and siRNA were diluted in the same jetPRIME transfection buffer, followed by the addition of jetPRIME. […] The lifetime of the mGFP donor fluorophore was measured using a fluorescence microscope (Zeiss AXIO Observer D1) equipped with a fluorescence lifetime imaging attachment (Lambert Instruments), as described previously in detail. The apparent FRET efficiency (Eapp) was calculated as Eapp = (1 − τDA/τD) × 100%, with the measured fluorescence lifetimes τDA of the FRET sample and the τD of the donor-only sample.

MDA-MB-231 microtumors = test: Chick chorioallantoic membrane (CAM) microtumor assay; format: in vivo, chick embryo; conditions: 5 days
Description: The fertilized eggs were incubated at 37 °C in a 55% to 60% humidified egg hatcher incubator (MG100, Fiem). After 8 days, 2 million MDA-MB-231 cells were resuspended in 1× PBS and Matrigel (BD Biosciences) at a ratio of 1:1, and were then deposited within sterilized 7 mm diameter plastic rings cut from a plastic pipette (cat. no. LW4111, Alpha Laboratories Limited) on a surface of chicken embryo CAM. The xenografted tumors were treated with 20 µL 0.1% DMSO vehicle control or the test compound diluted in 1× PBS once a day, starting from 24 h after cell seeding. The microtumors were harvested after 5 days of treatment. The microtumors were collected in pre-weighted 1.5 mL Eppendorf tubes containing 500 µL PBS, and the tumor mass was determined by the difference of the weights.

[1] = tested on: Hsp90 clients (C-Raf, Akt, ERK); test: Western blotting of Hsp90 client proteins; format: cell-based; conditions: Western blot, 24 h; SK-BR-3, MDA-MB-231, MIA PaCa-2, HCC-44 (conglobatin A: MDA-MB-231)
Description: The cells were trypsinized, washed with PBS, and lysed in RIPA buffer (cat no. 89900, ThermoFisher Scientific) containing protease and phosphatase inhibitors (cat. no. A32959, ThermoFisher Scientific) and 1 mM phenylmethylsulfonyl fluoride (PMSF). The cells in the RIPA buffer were placed on ice for 20 min, and were then sonicated in ice cold water for 5 min. The lysates were centrifuged at 4 °C, and their protein was quantified using a BCA kit (cat. no. 23225, ThermoFisher Scientific). Equal amounts of protein were separated by 10% SDS-PAGE, and were then transferred onto a nitrocellulose membrane (cat. no. NBA 083C001EA, Protran) using a wet transfer system (Bio-Rad) or semidry Transferblot Turbo Transfer System (Bio-Rad). After the transfer, the membranes were blocked for 30 min in 5% skimmed milk dissolved in 1× TBST, and then incubated with 1:2000 primary antibodies in 5% BSA in TBST at 4 °C overnight.
The primary antibodies against HER-2 (cat no. MA5-140579) and Hsp70 (cat. no. MA3-006) were purchased from ThermoFisher Scientific; C-Raf (cat. no. sc-133); the galectin-3 (cat. no. sc-20157), Hsp90 (cat. no. sc-69703), Cdc37 (cat. no. sc-13129) were obtained from Santa Cruz Biotechnology; the Akt (cat. no. 9272S), ERK1/2 (cat. no. 9102S), and pERK1/2 (cat. no. 9101S) were obtained from Cell Signaling Technology; the HIF-1α (cat. no. NB-100-134) was obtained from Novus Biologicals; and the β-actin (cat. no. A1978) was obtained from Sigma-Aldrich.
The next day, the membranes were washed three times in TBST for 10 min, and then incubated with secondary antibodies (1:5000) diluted in 5% skimmed milk in TBST for 1 h at RT. As secondary antibodies, we employed HRP-conjugated anti-mouse (cat. no. sc-2954, Santa Cruz Biotechnology) and anti-rabbit antibodies (cat. no. HAF008, R&D System). The protein bands were detected with a ChemiDoc MP instrument (Bio-Rad) after treatment with an ECL reagent (cat. no. 170-5061, BioRad). All of the antigens and molecular weights in kDa are labelled next to the blots on the figures. Uncropped Western blot data are attached as Figure S6.

MDA-MB-231 cells = test: 2D cell proliferation (alamarBlue); format: cell-based; conditions: Homo sapiens, MDA-MB-231, 72 h
Description: Per well, 500–700 cells were seeded in 96-well flat bottom culture plates in 100 µL. After 24 h, the cells were treated with 0.1% DMSO vehicle control or test compounds diluted in a medium using a 1:2 dilution-series, starting at 100 µM. The plates were further incubated for 72 h. The cell viability was measured after the addition of 10% alamarBlue reagent per well (cat. no. DAL1100, Thermo Fisher Scientific). The fluorescence intensity (excitation 560 nm and emission 590 nm) was measured after 4 h by the use of a H1 Hybrid Multi-Mode reader.

Structure (SMILES) | K-RasG12V nanoclustering-FRET (K-RasG12V nanoclustering) | microtumor growth on CAM (MDA-MB-231 microtumors; MDA-MB-231, 10 μM) | expression of Hsp90 clients (C-Raf, Akt, ERK; pERK) [1] | IC50 (MDA-MB-231 cells) | microtumor growth on CAM (MDA-MB-231 microtumors; MDA-MB-231, 20 μM)
C/C1=C\[C@H](C)C[C@H](C)[C@H](Cc2cnco2)OC(=O)/C(C)=C/[C@H](C)C[C@H](C)[C@H](Cc2cnco2)OC1=O [conglobatin A, reference compound] | selective inhibition of K-RasG12V- | significantly reduced | decreased pERK and Akt levels | 32 ± 2 µM | –
CCOc1ccc(C(=O)c2ccc(O)c(O)c2O)cc1 [×1540, 2,3,4-TRIHYDROXY-4'-ETHOXYBENZOPHENONE] | displayed K-Ras-selectivity | – | dose-dependently decreased | 29 ± 3 µM | significantly reduced
N=C(CSS(=O)(=O)O)NCC12CC3CC(CC(C3)C1)C2 [×6506, [({N-[(adamantan-1-yl)methyl]carbamimidoyl}methyl)sulfanyl]sulfonic acid] | displayed K-Ras-selectivity | – | dose-dependently decreased | 32.6 ± 0.5 µM | significantly reduced
